The supplement of paper PMC11208160

Assay: recombinant UMI read abundance after kanamycin selection (control-corrected) (log10(CPM+1)); higher = more efficient recombination; extreme values may be limits of the assay; sequences stand for … in AGTGCAGAGAAAATCGGCCAGTTTTCTCTGCCTGCAGTCCGCATGCCGTGGGACCCCTTGGGTTCTAACCTGTTGCCTAGATTTATGCAGCGGACTGCCTTTCTCCCAAAGTGATAAACCGG…AGGTTGGTTTCACT; site = the 11-nt donor
Method in brief: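 Sequencing read counts were converted to CPM, averaged over two replicates and scaled by control-derived factors. Results are given as log10(CPM+1). The reads covered the donor–target junction of recombinant UMIs from a pooled Escherichia coli screen of donor and donor-binding-loop pairs for the IS621 bridge recombinase.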
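Further: IS621 bridge recombinase in Escherichia coli cells against a fixed T5 target plasmid.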

Sequence	recombinant UMI read abundance (log10)
TGCACCGCATGGACCGGTTTTCCCGGTAATCCGTATTTGCG (site TTCACCGCTCG)	0.00682
TGCAGCACATGGACCGGTTTTCCCGGTAATCCGTATTTGCG (site TGCAGCACTCG)	0.686
TGCAGTGCATGGACCGGTTTTCCCGGTAATCCGTATTTGTA (site TGCAGTGCTTA)	0.853
TGCATCCCATGGACCGGTTTTCCCGGTAATCCGTATTTGAA (site TGCATCCCTTT)	0.335
TGCATTCCATGGACCGGTTTTCCCGGTAATCCGTATTTGTT (site TGCATTCCTAA)	0
TGCCAGGCATGGACCGGTTTTCCCGGTAATCCGTATTTGTC (site TGCCAGGCTGA)	0
TGCCATTCATGGACCGGTTTTCCCGGTAATCCGTATTTGAT (site TGCCATTCTAT)	0
TGCCCGGCATGGACCGGTTTTCCCGGTAATCCGTATTTGGC (site TGACCGGCTGC)	0.0166
TGCCCGGCATGGACCGGTTTTCCCGGTAATCCGTATTTGGC (site TGCCCGGCTGC)	0
TGCCCGGCATGGACCGGTTTTCCCGGTAATCCGTATTTGGC (site TGGCCGGCTGC)	0
TGCCCGGCATGGACCGGTTTTCCCGGTAATCCGTATTTGGC (site TGTCCGGCTGC)	0
TGCCGATCATGGACCGGTTTTCCCGGTAATCCGTATTTGCG (site TGCCGATCTCG)	0.225
TGCCGTACATGGACCGGTTTTCCCGGTAATCCGTATTTGCT (site AGCCGTACTAG)	0.792
TGCCGTACATGGACCGGTTTTCCCGGTAATCCGTATTTGCT (site CGCCGTACTAG)	0.514
TGCCGTACATGGACCGGTTTTCCCGGTAATCCGTATTTGCT (site GGCCGTACTAG)	0
TGCCGTACATGGACCGGTTTTCCCGGTAATCCGTATTTGCT (site TGCCGTACTAG)	1.25

Sequence	recombinant UMI read abundance (log10)
TGCGACACATGGACCGGTTTTCCCGGTAATCCGTATTTGGT (site TGCGACACTAC)	0.00309
TGCGAGGCATGGACCGGTTTTCCCGGTAATCCGTATTTGGA (site TGCGAGGCTTC)	0.00911
TGCGTTACATGGACCGGTTTTCCCGGTAATCCGTATTTGTT (site TGCGTTACTAA)	0.237
TGCTAGGCATGGACCGGTTTTCCCGGTAATCCGTATTTGAT (site TGCTAGGCTAA)	0.0172
TGCTAGGCATGGACCGGTTTTCCCGGTAATCCGTATTTGAT (site TGCTAGGCTAC)	0.0154
TGCTAGGCATGGACCGGTTTTCCCGGTAATCCGTATTTGAT (site TGCTAGGCTAG)	0
TGCTAGGCATGGACCGGTTTTCCCGGTAATCCGTATTTGAT (site TGCTAGGCTAT)	0.326
TGCTATGCATGGACCGGTTTTCCCGGTAATCCGTATTTGGT (site TGCTAAGCTAC)	0.0239
TGCTATGCATGGACCGGTTTTCCCGGTAATCCGTATTTGGT (site TGCTACGCTAC)	0.0173
TGCTATGCATGGACCGGTTTTCCCGGTAATCCGTATTTGGT (site TGCTAGGCTAC)	0.00428
TGCTATGCATGGACCGGTTTTCCCGGTAATCCGTATTTGGT (site TGCTATGCTAC)	0.262
TGCTATTCATGGACCGGTTTTCCCGGTAATCCGTATTTGTA (site TGCTATTCTTA)	1.33
TGCTCACCATGGACCGGTTTTCCCGGTAATCCGTATTTGTA (site TGCTCACCTTA)	0.0115
TGCTGGGCATGGACCGGTTTTCCCGGTAATCCGTATTTGCC (site TGCTGGGCTGG)	0.00658
TGCTTATCATGGACCGGTTTTCCCGGTAATCCGTATTTGTG (site TGCTTATCTCA)	1
TGCTTGCCATGGACCGGTTTTCCCGGTAATCCGTATTTGAA (site TGCTTGCCTTT)	0.0149
